Laboratory results from the supplement of paper PMC10307832.

What was measured:
Test in all cases: relative viability (nuclei count vs DMSO), 5 days (fraction); higher = more cells survive
OSI-027 + Crizotinib = compound: COc1cccc2cc(-c3nc([C@H]4CC[C@H](C(=O)O)CC4)n4ncnc(N)c34)[nH]c12 [OSI-027] + C[C@@H](Oc1cc(-c2cnn(C3CCNCC3)c2)cnc1N)c1c(Cl)ccc(F)c1Cl [Crizotinib] (partner 1 µM)
Method in brief: (§1)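 Values are medians from duplicate plates. Each reflects relative viability, defined as the nuclei count of treated wells over that of vehicle wells. Lung cancer cell lines in 1536-well plates were pin-tool dosed one day after seeding with one drug alone or with a fixed anchor-drug dose plus five library-drug doses (not always all listed) in √10 steps, then fixed, stained and imaged at 4× after 5 days.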

OSI-027 + Palbociclib = compound: COc1cccc2cc(-c3nc([C@H]4CC[C@H](C(=O)O)CC4)n4ncnc(N)c34)[nH]c12 [OSI-027] + CC(=O)c1c(C)c2cnc(Nc3ccc(N4CCNCC4)cn3)nc2n(C2CCCC2)c1=O [Palbociclib] (partner 0.5 µM)
Method in brief: as §1

Vemurafenib + Navitoclax = compound: CCCS(=O)(=O)Nc1ccc(F)c(C(=O)c2c[nH]c3ncc(-c4ccc(Cl)cc4)cc23)c1F [Vemurafenib] + CC1(C)CCC(c2ccc(Cl)cc2)=C(CN2CCN(c3ccc(C(=O)NS(=O)(=O)c4ccc(N[C@H](CCN5CCOCC5)CSc5ccccc5)c(S(=O)(=O)C(F)(F)F)c4)cc3)CC2)C1 [Navitoclax] (partner 0.5 µM)
Method in brief: as §1

Alpelisib + Phenformin = compound: Cc1nc(NC(=O)N2CCC[C@H]2C(N)=O)sc1-c1ccnc(C(C)(C)C(F)(F)F)c1 [Alpelisib] + N=C(N)NC(=N)NCCc1ccccc1 [Phenformin] (partner 250 µM)
Method in brief: as §1

UMC-11 was tested. Which relative viability (OSI-027 + Crizotinib; first compound 0.01 µM) did it give?
Its relative viability is 0.499.

What about the relative viability (OSI-027 + Crizotinib; first compound 0.03162 µM) of the same cell line?
Its relative viability is 0.535.

What about the relative viability (OSI-027 + Crizotinib; first compound 0.1 µM) of the same cell line?
Its relative viability is 0.587.

What about the relative viability (OSI-027 + Crizotinib; first compound 0.3162 µM) of the same cell line?
The relative viability was 0.491.

What about the relative viability (OSI-027 + Crizotinib; first compound 1 µM) of the same cell line?
The relative viability was 0.378.

What about the relative viability (OSI-027 + Palbociclib; first compound 0.01 µM) of the same cell line?
The relative viability was 0.314.

And the relative viability (OSI-027 + Palbociclib; first compound 0.03162 µM)?
Its relative viability is 0.371.

And the relative viability (OSI-027 + Palbociclib; first compound 0.1 µM)?
The relative viability was 0.307.

What about the relative viability (OSI-027 + Palbociclib; first compound 0.3162 µM) of the same cell line?
Its relative viability is 0.301.

What about the relative viability (OSI-027 + Palbociclib; first compound 1 µM) of the same cell line?
The relative viability was 0.314.

What about the relative viability (Vemurafenib + Navitoclax; first compound 0.03162 µM) of the same cell line?
Its relative viability is 0.336.

What about the relative viability (Vemurafenib + Navitoclax; first compound 0.1 µM) of the same cell line?
The relative viability was 0.327.

And the relative viability (Vemurafenib + Navitoclax; first compound 0.3162 µM)?
Its relative viability is 0.374.

And the relative viability (Vemurafenib + Navitoclax; first compound 1 µM)?
Its relative viability is 0.319.

And the relative viability (Alpelisib + Phenformin; first compound 0.04 µM)?
Its relative viability is 0.302.

What about the relative viability (Alpelisib + Phenformin; first compound 0.1265 µM) of the same cell line?
The relative viability was 0.325.

What about the relative viability (Alpelisib + Phenformin; first compound 0.4 µM) of the same cell line?
The relative viability was 0.326.

What about the relative viability (Alpelisib + Phenformin; first compound 1.265 µM) of the same cell line?
Its relative viability is 0.31.

And the relative viability (Alpelisib + Phenformin; first compound 4 µM)?
The relative viability was 0.262.
